The values below come from patent US20240270713A1, “NOVEL COMPOUND EXHIBITING THERAPEUTIC EFFECT ON INFLAMMATORY DISEASE AS P38 MAP KINASE INHIBITOR” (PRAZERTHERAPEUTICS INC., priority 2021, published 2024).

What all share (format): cell-based
In one experiment the test system is TNFα mRNA. Nature of the experiment: Cytokine mRNA expression inhibitory ability, TNFα, LPS-treated Raw264.7 cells. The settings on record: 1 μM compound 24 hours, then 100 ng/ml LPS 24 hours. The method, then:
Evaluation of cytokine mRNA expression inhibitory ability according to inflammatory response
In order to identify inhibition of p-p38 MAPK, inhibition of p38 MAPK was identified after treating each compound to Raw264.7 cells obtained by converting macrophages that induces inflammation according to p-p38 MAPK activity cancerous cells. Briefly, Raw264.7 cells were cultured in Dulbecco's modified Eagle Medium supplemented with 10% fetal bovine serum and penicillin/streptomycin (100 U/ml). Raw264.7 cells were treated with 1 μM of Compounds 1 to 5 according to the present disclosure in a culture dish respectively and cultured for 24 hours in a CO2 incubator, and then treated with 100 ng/ml of LPS, followed by additional culture for 24 hours in a CO2 incubator.
After cell culture was terminated according to the experimental conditions, cells were washed with cold phosphate buffered saline (PBS). The cells were then collected and centrifuged at 1200 rpm for 3 minutes. RNA was extracted according to the method provided in the Hybrid-R total RNA purification kit (GeneAll, 305-101). After measuring the concentration and purity of RNA using Nanodrop, cDNA was synthesized according to the method provided in TOPscript RT DryMIX (Enzynomics, RT200). After a reaction at 95° C. for 3 minutes using SYBR Green Mix along with primer, cDNA was subjected to repetitive reactions 30 times at 95° C. for 10 seconds, at 55° C. for 10 seconds, and at 72° C. for 30 seconds to determine the RNA expression level. The results are shown in Tables 5 and 6 below and FIGS. 1 and 2.

The target in a further experiment is p-p38 MAPK (Homo sapiens (Human), UniProt Q16539). Nature of the experiment: p38 MAPK protein inhibitory ability in brain-derived cells (p-p38 immunoblot, SH-SY5Y). The method, then: Evaluation of p38 MAPK protein inhibitory ability in brain-derived cells
In order to identify inhibition of p-p38 MAPK in brain cells, the inhibition of p38 MAPK was identified by inducing inflammation after treating each compound to SH-SYSY cells obtained by converting human neurons into cancerous cells. In short, SH-SY5Y cells were cultured in Minimum essential medium/Eagle's balanced salts supplemented with 10% fetal bovine serum and penicillin/streptomycin (100 U/ml). SH-SY5Y cells were treated with 1 μM of Compounds 4 and 6 according to the present disclosure in a culture dish respectively and cultured for 24 hours in a CO2 incubator, and then treated with 1000 ng/ml of LPS, followed by additional culture for 6 hours in a CO2 incubator.
After cell culture was terminated according to the experimental conditions, cells were washed with cold phosphate buffered saline (PBS). The cells were then collected and centrifuged at 1200 rpm for 3 minutes. The cells in the sediment were lysed with 2X sample buffer (1M Tris-HCl pH 6.8, 50% glycerol, 10% SDS, 2-mercaptoethanol, 1% bromophenol blue) and boiled at 100° C. for 10 minutes. The prepared protein samples were subjected to sodium dodecyl sulfate poly acrylamide gel electrophoresis and transferred to PVDF membrane (Millipore). For a specific binding reaction between the protein in the PVDF membrane and antibody, blocking was performed in a 5% bovine serum albumin (BSA, RMbio) solution. Subsequently, the BSA solution was discarded, and the membrane was washed with PBS-T (0.5% Tween 20 in PBS). The binding reaction of the protein in the membrane and antibody was performed overnight at 4° C. and washed again with PBS-T. Finally, a secondary antibody (Cell signaling Technology) conjugated with horse radish peroxidase (HRP) was diluted in PBS-T and reacted at room temperature for 2 hours. Luminata Forte HRP substrate (Millipore) was used to determine the amount of protein in the membrane, the results of which are shown in Table 8 below.
(In western blotting, separated proteins are transferred to a membrane and probed.)

In the next experiment the test system is IL-6 mRNA. Nature of the experiment: Cytokine mRNA expression inhibitory ability, IL-6, LPS-treated BV2 cells. To be noted: 1 μM compound 24 hours, then 1000 ng/ml LPS 24 hours. The method, then: Evaluation of cytokine mRNA expression inhibitory ability by inflammatory response
In order to identify inhibition of p-p38 MAPK, the inhibition of p38 MAPK was identified by treating each compound to BV2 cells obtained by converting microglia that induces inflammation according to p-p38 MAPK activity in the brain into cancerous cells. Briefly, BV2 cells were cultured in Dulbecco's modified Eagle Medium supplemented with 10% fetal bovine serum and penicillin/streptomycin (100 U/ml). BV2 cells were treated with 1 μM of Compounds 4 to 6 according to the present disclosure in a culture dish respectively and cultured for 24 hours in a CO2 incubator, and then treated with 1000 ng/ml of LPS, followed by additional culture for 24 hours in a CO2 incubator.
After the cell culture was completed according to the experimental conditions, washing was performed with cold phosphate buffered saline (PBS). The cells were then collected and centrifuged at 1200 rpm for 3 minutes. RNA was extracted according to the method provided in the Hybrid-R total RNA purification kit (GeneAllR), 305-101). After measuring the concentration and purity of RNA using Nanodrop, cDNA was synthesized according to the method provided in TOPscript RT DryMIX (Enzynomics, RT200). […]

Sequence of p-p38 MAPK (Q16539 whole entry): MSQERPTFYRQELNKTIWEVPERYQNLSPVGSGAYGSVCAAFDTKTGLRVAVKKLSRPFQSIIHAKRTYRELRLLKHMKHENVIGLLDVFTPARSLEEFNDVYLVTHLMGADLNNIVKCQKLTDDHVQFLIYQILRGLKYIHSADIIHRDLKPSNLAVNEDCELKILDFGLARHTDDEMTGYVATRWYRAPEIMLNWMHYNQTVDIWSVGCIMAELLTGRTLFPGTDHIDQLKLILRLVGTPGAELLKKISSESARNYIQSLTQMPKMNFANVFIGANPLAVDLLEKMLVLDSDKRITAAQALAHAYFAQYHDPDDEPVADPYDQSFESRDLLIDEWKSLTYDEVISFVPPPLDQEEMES

`Cc1c(F)cc(C(=O)NC2CC2)cc1-c1ccc(C(=O)c2c[nH]c3ccccc23)cn1` [Compound 4, 3-(5-(1H-indole-3-carbonyl)pyridin-2-yl)-N-cyclopropyl-5-fluoro-4-methylbenzamide]: the “TNFα mRNA inhibition” value in the experiment on TNFα mRNA is given as 51.5%. In addition, the “p38 phosphorylation in cells derived from human (result in words)” value at p-p38 MAPK (1 μM) is reported as “effectively inhibited p38 phosphorylation”. At p-p38 MAPK (1 μM compound 24 hours, then 1000 ng/ml LPS 6 hours), this molecule returned an inhibition at 1 µM of 74.6%. For the same molecule, in the experiment on IL-6 mRNA, the “IL-6 mRNA inhibition” value is 52.8%.

A word on the inhibition: it is how much of the control response was suppressed.
